Legend:
[1] = system: acetylcholine-induced abdominal constriction in mice; experiment: Mouse Abdominal Irritant Test (MAIT); assay type: in vivo; details: 300 mg/kg oral, male CD1 mice, % Inhibition=100×(Number of Nonresponders)/(Number of Animals in Group), read-out: Effect @ 300 mg/kg (Antinociceptive Effect in Mouse Abdominal Irritant Test)
Experimental: Male CD1 mice (weighing from 18-24 g) are used to determine the antinociceptive effects associated with the compositions of the invention. The mice are all dosed orally with the compounds specified, dissolved in distilled water or suspended in 0.5% MethocelTM (hydroxypropyl methylcellulose) in water. The dosing volume is 10 mL/kg.
The procedure used in detecting and comparing the analgesic activity of different classes of analgesic drugs for which there is a good correlation with human efficacy is the prevention of acetylcholine-induced abdominal constriction in mice (H. Collier et al., Br. J. Pharmacol., 32, 295 (1968)).
Mice, intubated with various doses of the compound or vehicle such as distilled water, or distilled water 0.5% Methocel™ (hydroxypropyl methylcellulose) in water, are injected intraperitoneally with a challenge dose of acetylcholine bromide. The acetylcholine is completely dissolved in distilled water at a concentration of […] and injected at the rate of 0.20 mL/20 g. For scoring purposes, an “abdominal constriction” is defined as a contraction of the abdominal musculature accompanied by arching of the back and extension of the limbs. The mice are observed for 10 minutes for the presence or absence of the abdominal constriction response beginning immediately after receiving the acetylcholine dose, administered at a certain time after the oral administration of the test drug or vehicle. Each mouse is used only once.
The percent of inhibition of this response is calculated as follows: % Inhibition=100×(Number of Nonresponders)/(Number of Animals in Group)

[2] = system: rectal temperature of rats injected with yeast suspension; experiment: Antipyretic evaluation in yeast-injected rats; assay type: in vivo
Experimental: Groups of 10 male rats are weighed, color-coded, rectal temperatures taken (24 hours±15 minutes prior to dose administration) and recorded. Food is removed but water remains available ad libitum. Each rat is injected subcutaneously into the central dorsal region with 5 ml of a 15% yeast suspension. Twenty-three hours (±15 minutes) after yeast injection, body weights and rectal temperatures are taken and recorded. Twenty-four hours (±15 minutes) after yeast injection, the vehicle and test articles are administered orally. Temperatures are taken and recorded one hour (±5 minutes) following test article or vehicle administration. The mean rectal temperatures for the test article and vehicle control groups are calculated at 23 and 25 hours (±15 minutes) and subjected to an ANOVA followed by a Tukey HSD Multiple Comparison Test (p≦0.05)—Systat, version 9.0.

**Q.** `O=C(Nc1ccc(O)cc1)c1n[nH]c2ccccc12` [1H-Indazole-3-carboxylic acid (4-hydroxy-phenyl)-amide] was tested. Which responders at 300 mg/kg [1] did it give?
**A.** The responders at 300 mg/kg was 20%.

**Q.** Which responders at 300 mg/kg [1] does the source give for `O=C(Nc1ccc(O)cc1)c1ccc[nH]1` [1H-Pyrrole-2-carboxylic acid (4-hydroxy-phenyl)-amide] here?
**A.** Its responders at 300 mg/kg is 86.7%.

**Q.** For `Cc1cc(C(=O)Nc2ccc(O)cc2)n[nH]1` [5-Methyl-1H-pyrazole-3-carboxylic acid (4-hydroxy-phenyl)-amide], which responders at 300 mg/kg [1] is on record?
**A.** The responders at 300 mg/kg was 73.3%.

**Q.** How did the responders at 300 mg/kg [1] turn out when `O=C(Nc1ccc(O)cc1)[C@H]1CCCN1` [(R)-Pyrrolidine-2-carboxylic acid (4-hydroxy-phenyl)-amide] was run?
**A.** Its responders at 300 mg/kg is 20%.

**Q.** How did the responders at 300 mg/kg [1] turn out when `O=C(Nc1ccc(O)cc1)[C@@H]1CCCN1` [(S)-Pyrrolidine-2-carboxylic acid (4-hydroxy-phenyl)-amide] was run?
**A.** Its responders at 300 mg/kg is 40%.

**Q.** How did the responders at 300 mg/kg [1] turn out when `O=C(CS)Nc1ccc(O)cc1` [N-(4-Hydroxy-phenyl)-2-mercapto-acetamide] was run?
**A.** The responders at 300 mg/kg was 40%.

**Q.** `CS(=O)(=O)CC(=O)Nc1ccc(O)cc1` [N-(4-Hydroxy-phenyl)-2-methanesulfonyl-acetamide] was tested. Which responders at 300 mg/kg [1] did it give?
**A.** The responders at 300 mg/kg was 40%.

**Q.** `CSCC(=O)Nc1ccc(O)cc1` [N-(4-Hydroxy-phenyl)-2-methylsulfanyl-acetamide] was tested. Which responders at 300 mg/kg [1] did it give?
**A.** Its responders at 300 mg/kg is 45%.

**Q.** Which “decrease in body temperature relative to the vehicle-treated group” value ([2]; 600 mg/kg oral, ANOVA, Tukey HSD) does the source give for `O=C(Nc1ccc(O)cc1)c1ccccn1` [Pyridine-2-carboxylic acid (4-hydroxy-phenyl)-amide] here?
**A.** Its value is “statistically significant (p≦1.05) decrease in body temperature”.

**Q.** And the “Antipyresis deg C. @ 600 mpk” value ([2]; 600 mpk oral, one hour after administration, 24 h after yeast injection)?
**A.** Its value is −2.17 deg C.

**Q.** And the responders at 300 mg/kg [1]?
**A.** The responders at 300 mg/kg was 60%.
